The record followed here is patent US8604217B2, “Compound, a process for its preparation, a pharmaceutical composition, use of a compound, a method for modulating or regulating serine/threonine kinases and a serine/threonine kinases modulating agent” (Selvita S.A., priority 2009, dated 2013).

Test [1] relates to human hepatoma HepG2 cells. The experiment in a line: Growth inhibition test (MTS) on HepG2 cells. To be noted: 72 hours, read-out: HepG2 ED50. It counts as cell-based. The method, then:
(§1) Two thousand cells of human hepatoma HepG2 were inoculated into each well of a 96-well microplate (manufactured by Corning Corp.) using DMEM medium (culture medium) containing 10% fetal calf serum (FCS). Next day, a dimethyl sulfoxide (DMSO) solution of each test compound prepared in a concentration of 10 mmol/L was further diluted with culture medium to the desired concentrations (0.1, 0.5, 1, 2.5, 5 and 10 micromol/L), and the diluted solution was added to each well. The individual wells were further cultured in 5% carbon dioxide at 37° C. for 72 hours. After completion of the culture, 10 μl MTS (3-(4,5-Dimethyl-2-thiazolyl)-5-(carboxymethoxyphenyl)-2-(4-sulfophenyl)-2H-tetrazolium, inner salt assay (CellTiter96® AQueous One Solution Cell Proliferation Assay, Promega) was added to each well, and culturing was performed in 5% carbon dioxide at 37° C. for 2 hours. Using a microplate spectrophotometer (Synergy 2 multi-mode microplate reader (BioTek)), the absorbance of each well was measured at 490 nm. The value for cells not incorporated with a test compound was designated as 100%. By comparing these values with the absorbance difference obtained at the well in which each test compound was added, the cell viability (% viability) after treatment with the test compound was calculated.

The test system of test [2] is human myelomonocytic, biphenotypic leukemia MV4-11 cells. The experiment in a line: Growth inhibition test (MTS) on MV4-11 cells. Type of test: cell-based. To be noted: Homo sapiens, MV4-11, 72 hours, read-out: MV-4-11 ED50. The method, then: as §1, with “Ten” for “Two”, “myelomonocytic, biphenotypic leukemia MV4-11” for “hepatoma HepG2”, “Iscove's MDM” for “DMEM”
For test [3], the system named is human acute lymphocytic leukemia E6.1 Jurkat cells. The experiment in a line: Growth inhibition test (MTS) on E6.1 Jurkat cells. It counts as cell-based. To be noted: 72 hours, read-out: Jurkat ED50. As to the method:
as §1, with “Twenty” for “Two”, “acute lumphocytic leukemia E6.1 Jurkat” for “hepatoma HepG2”, “[…]” for “DMEM”

The target in another test is PIM-1 (Homo sapiens (Human), UniProt P11309). Nature of the test: Luminometric kinase assay for PIM1 kinase (Kinase-Glo). The settings on record: 1 μM ATP, 25 min at RT. Type of test: biochemical. The method, then:
Kinase assay was performed using luminescent Kinase-Glo® (Promega) system. The Kinase-Glo® Luminescent Kinase Assay Platform provides a homogeneous, high-throughput screening method for measuring kinase activity by quantifying the amount of ATP remaining in solution following a kinase reaction. The luminescent signal is correlated with the amount of ATP present and is inversely correlated with the kinase activity. Appropriate amounts of both kinase and substrate were mixed in 96-well, white wall plate in the reaction buffer (8 mM MOPS/NaOH, pH7.0, 0.2 mM EDTA, 2 mM MgCl2). Tested compounds were diluted in DMSO and serial dilutions starting with 1 μM were added to the palates. Reaction was initiated by adding 1 μM of ATP solution and conducted for 25 min. at RT. Luminescent signal was detected by adding Kinase-Glo® reagent and measured using a microplate spectrophotometer (Synergy 2 multi-mode microplate reader (BioTek)). IC50 values were obtained by fitting sigmoidal dose-response curve (variable slope) using GraphPad Prism software.
A general note: In Kinase-Glo more light means more ATP remaining.

Test [4] concerns human prostate adenocarcinoma PC3 cells. Nature of the test: Growth inhibition test (MTS) on PC3 cells. It counts as cell-based. The settings on record: Homo sapiens, PC-3, 72 hours, read-out: PC-3 ED50.
Description: as §1, with “prostate adenocarcinoma PC3” for “hepatoma HepG2”, “Corp.), and” for “Corp.)”, “F12K (Ham's F12:[…] 1:1)” for “DMEM”

Test [5] has as its system human breast adenocarcinoma MCF7 cells. Nature of the test: Growth inhibition test (MTS) on MCF7 cells. Type of test: cell-based. The settings on record: Homo sapiens, MCF7, 72 hours, read-out: MCF-7 ED50. The method, then: as §1, with “breast adenocarcinoma MCF7” for “hepatoma HepG2”, “Corp.), and” for “Corp.)”

PIM-1, sequence (P11309 whole entry): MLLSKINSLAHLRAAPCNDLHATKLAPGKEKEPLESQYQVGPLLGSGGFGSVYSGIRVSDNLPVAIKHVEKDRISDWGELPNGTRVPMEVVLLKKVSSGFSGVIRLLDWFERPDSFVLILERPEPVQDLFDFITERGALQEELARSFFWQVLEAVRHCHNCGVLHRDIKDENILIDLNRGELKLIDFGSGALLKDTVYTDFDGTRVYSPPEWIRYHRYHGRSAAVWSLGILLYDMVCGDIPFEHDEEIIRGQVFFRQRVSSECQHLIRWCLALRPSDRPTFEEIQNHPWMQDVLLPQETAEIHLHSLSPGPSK

Regarding `Brc1c(Br)c(Br)c2[nH]c(N3CCN(CCN4CCCCC4)CC3)nc2c1Br` [Compound 76, 4,5,6,7-tetrabromo-2-(4-(2-(piperidin-1-yl)ethyl)piperazin-1-yl)-1H-benzo[d]imidazole], the IC50 in test [1] was found to be 4.54 µM; in test [2], 5.27 µM; in test [3] it was 3.06 µM; on PIM-1, 0.117 µM.
As to `CN(C)CCN(Cc1ccccc1)c1nc2c(Br)c(Br)c(Br)c(Br)c2[nH]1` [Compound 158, N-benzyl-4,5,6,7-tetrabromo-N-(2-(dimethylamino)ethyl)-1H-benzo[d]imidazol-2-amine], the IC50 came out at 3.58 µM in test [1]; 8.83 µM in test [4]; 8.31 µM in test [5]; 4.86 µM in test [2]; 8.42 µM in test [3]; 0.0627 µM on PIM-1.
For `CN(C)CCN1CCC(CNc2nc3c(Br)c(Br)c(Br)c(Br)c3[nH]2)C1` (stereo not drawn) [Compound 166, 4,5,6,7-tetrabromo-N-((1-(2-(dimethylamino)ethyl)pyrrolidin-3-yl)methyl)-1H-benzo[d]imidazol-2-amine], the IC50 came to 2.62 µM in test [1]; 3.15 µM in test [4]; 4.93 µM in test [5]; 1.19 µM in test [2]; 4.92 µM in test [3]; 0.051 µM on PIM-1.
For the molecule `Brc1c(Br)c(Br)c2[nH]c(NCCCN3CCOCC3)nc2c1Br` [Compound 192, 4,5,6,7-tetrabromo-N-(3-morpholinopropyl)-1H-benzo[d]imidazol-2-amine], the IC50 in test [1] came to 6.23 µM; in test [2], 5.13 µM; in test [3], 7.67 µM; on PIM-1 it was 0.0454 µM.
For `Brc1cccc(Nc2nc3c(Br)c(Br)c(Br)c(Br)c3[nH]2)c1` [Compound 236, 4,5,6,7-tetrabromo-N-(3-bromophenyl)-1H-benzo[d]imidazol-2-amine], the IC50 was found to be 2.2 µM in test [1]; 2.5 µM in test [4]; 4.2 µM in test [5]; 1.6 µM in test [2]; 4.4 µM in test [3].
In the case of `Brc1c(Br)c(Br)c2[nH]c(NCCN3CCN(c4ncccn4)CC3)nc2c1Br` [Compound 247, 4,5,6,7-tetrabromo-N-(2-(4-(pyrimidin-2-yl)piperazin-1-yl)ethyl)-1H-benzo[d]imidazol-2-amine], the IC50 in test [1] stood at 9.01 µM; in test [5], 7.15 µM; in test [2], 5.96 µM; in test [3], 7.84 µM; at PIM-1, 0.109 µM.
With `CN1CCCN(c2nc3c(Br)c(Br)c(Br)c(Br)c3[nH]2)CC1` [Compound 256, 4,5,6,7-tetrabromo-2-(4-methyl-1,4-diazepan-1-yl)-1H-benzo[d]imidazole], the IC50 in test [1] amounted to 3.39 µM; in test [4], 5.18 µM; in test [5], 5.11 µM; in test [2], 2.6 µM; in test [3], 4.86 µM.
As for `Brc1c(Br)c(Br)c2[nH]c(Nc3ccc4ccccc4c3)nc2c1Br` [Compound 259, 4,5,6,7-tetrabromo-N-(naphthalen-3-yl)-1H-benzo[d]imidazol-2-amine], the IC50 amounted to 5.49 µM in test [1]; 3.51 µM in test [4]; 5.9 µM in test [5]; 6.44 µM in test [2]; 7.11 µM in test [3].
Regarding `Fc1ccc(CNc2nc3c(Br)c(Br)c(Br)c(Br)c3[nH]2)cc1F` [Compound 296, N-(3,4-difluorobenzyl)-4,5,6,7-tetrabromo-1H-benzo[d]imidazol-2-amine], the IC50 in test [1] was found to be 5.91 µM; in test [4], 4.21 µM; in test [2], 4.15 µM; in test [3], 8.12 µM; at PIM-1 it was 0.17 µM.
For `OC1CCC(Nc2nc3c(Br)c(Br)c(Br)c(Br)c3[nH]2)CC1` (stereo not drawn) [Compound 309, 4-(4,5,6,7-tetrabromo-1H-benzo[d]imidazol-2-ylamino)cyclohexanol], the IC50 in test [1] was found to be 4.87 µM; in test [2], 5.54 µM; in test [3] it was 8.18 µM; at PIM-1, 0.0159 µM.
For the molecule `Nc1cc(Br)c(Br)cc1Nc1nc2c(Br)c(Br)c(Br)c(Br)c2[nH]1` [Compound 317, 4,5-dibromo-N1-(4,5,6,7-tetrabromo-1H-benzo[d]imidazol-2-yl)benzene-1,2-diamine], the IC50 in test [1] turned out to be 4.33 µM; in test [5], 6.63 µM; in test [2], 3.95 µM; in test [3], 7.05 µM; on PIM-1, 0.598 µM.
Turning to `Brc1c(Br)c(Br)c2[nH]c(Nc3ccccn3)nc2c1Br` [Compound 329, 4,5,6,7-tetrabromo-N-(pyridin-2-yl)-1H-benzo[d]imidazol-2-amine], the figures for the IC50 (in test [4]; in test [3]; at PIM-1) were 4.69 µM, 4.45 µM and 0.047 µM, respectively.
